Converted amounts (≈) assume the structure as drawn.
Assays:
Type in all cases: functional
Pasteurella multocida [1] = assay: Antibacterial activity against TolC deficient Pasteurella multocida pm0527 after 24 hrs by broth dilution method
Pasteurella multocida [2] = assay: Ratio of MIC for Pasteurella multocida AL435 to MIC for TolC deficient Pasteurella multocida pm0527
Pasteurella multocida [3] = assay: Ratio of MIC for Pasteurella multocida AL435 to MIC for TolC deficient Pasteurella multocida pm1980
Pasteurella multocida [4] = assay: Antibacterial activity against TolC deficient Pasteurella multocida pm1980 after 24 hrs by broth dilution method
Pasteurella multocida [5] = assay: Antibacterial activity against Pasteurella multocida AL435 after 24 hrs by broth dilution method
Pasteurella multocida [6] = assay: Antibacterial activity against Pasteurella multocida pm0527 after 24 hrs by broth dilution method
Pasteurella multocida [7] = assay: Antibacterial activity against Pasteurella multocida pm1980 after 24 hrs by broth dilution method

Compound	MIC (Pasteurella multocida [1]; pm0527, 24 h)	Ratio (Pasteurella multocida [2])	Ratio (Pasteurella multocida [3])	MIC (Pasteurella multocida [4]; pm1980, 24 h)	MIC (Pasteurella multocida [5]; AL435, 24 h)	MIC (Pasteurella multocida [6]; pm0527, 24 h)	MIC (Pasteurella multocida [7]; pm1980, 24 h)	MIC (Pasteurella multocida [1])	MIC (Pasteurella multocida [4])	MIC (Pasteurella multocida [5])	MIC (Pasteurella multocida [6])	MIC (Pasteurella multocida [7])
CN(C)c1ccc2cc3ccc(N(C)C)cc3nc2c1 [ACRIDINE ORANGE]	0.234 µg/mL (≈ 0.882 µM)	128	1	30 µg/mL (≈ 113 µM)	30 µg/mL (≈ 113 µM)	15 µg/mL (≈ 56.5 µM)	30 µg/mL (≈ 113 µM)	–	–	–	–	–
CC(C)(O/N=C(\C(=O)N[C@@H]1C(=O)N2C(C(=O)[O-])=C(C[n+]3ccccc3)CS[C@H]12)c1csc(N)n1)C(=O)O [CEFTAZIDIME]	15.6 µg/mL (≈ 28.5 µM)	16	8	31.2 µg/mL (≈ 57.1 µM)	250 µg/mL (≈ 457 µM)	7.8 µg/mL (≈ 14.3 µM)	31.2 µg/mL (≈ 57.1 µM)	–	–	–	–	–
O=C(N[C@H](CO)[C@H](O)c1ccc([N+](=O)[O-])cc1)C(Cl)Cl [CHLORAMPHENICOL]	0.5 µg/mL (≈ 1.55 µM)	2	1	1 µg/mL (≈ 3.09 µM)	1 µg/mL (≈ 3.09 µM)	1 µg/mL (≈ 3.09 µM)	1 µg/mL (≈ 3.09 µM)	–	–	–	–	–
C[C@@H]1C[C@@H]([C@H](O)CC2CC(=O)NC(=O)C2)C(=O)[C@@H](C)C1 [CYCLOHEXIMIDE]	250 µg/mL (≈ 889 µM)	2	1	500 µg/mL (≈ 1780 µM)	500 µg/mL (≈ 1780 µM)	500 µg/mL (≈ 1780 µM)	500 µg/mL (≈ 1780 µM)	–	–	–	–	–
O=P1(N(CCCl)CCCl)NCCCO1 (centres undefined) [CYCLOPHOSPHAMIDE ANHYDROUS]	4000 µg/mL (≈ 15300 µM)	1	2	2000 µg/mL (≈ 7660 µM)	4000 µg/mL (≈ 15300 µM)	2000 µg/mL (≈ 7660 µM)	2000 µg/mL (≈ 7660 µM)	–	–	–	–	–
C[C@H](CCC(=O)O)[C@H]1CC[C@H]2[C@@H]3CC[C@@H]4C[C@H](O)CC[C@]4(C)[C@H]3C[C@H](O)[C@]12C [DEOXYCHOLIC ACID]	625 µg/mL (≈ 1590 µM)	1	1	625 µg/mL (≈ 1590 µM)	625 µg/mL (≈ 1590 µM)	312 µg/mL (≈ 796 µM)	625 µg/mL (≈ 1590 µM)	–	–	–	–	–
O[C@@H](CS)[C@@H](O)CS [DITHIOTHREITOL]	2000 µg/mL (≈ 13000 µM)	2	2	2000 µg/mL (≈ 13000 µM)	4000 µg/mL (≈ 25900 µM)	2000 µg/mL (≈ 13000 µM)	4000 µg/mL (≈ 25900 µM)	–	–	–	–	–
CC[C@H]1OC(=O)[C@H](C)[C@@H](O[C@H]2C[C@@](C)(OC)[C@@H](O)[C@H](C)O2)[C@H](C)[C@@H](O[C@@H]2O[C@H](C)C[C@H](N(C)C)[C@H]2O)[C@](C)(O)C[C@@H](C)C(=O)[C@H](C)[C@@H](O)[C@]1(C)O [ERYTHROMYCIN]	0.47 µg/mL (≈ 0.64 µM)	8	2	1.88 µg/mL (≈ 2.56 µM)	3.8 µg/mL (≈ 5.18 µM)	1.88 µg/mL (≈ 2.56 µM)	1.88 µg/mL (≈ 2.56 µM)	–	–	–	–	–
CCCCc1ccc(C(=O)O)nc1 [FUSARIC ACID]	50 µg/mL (≈ 279 µM)	2	2	50 µg/mL (≈ 279 µM)	100 µg/mL (≈ 558 µM)	50 µg/mL (≈ 279 µM)	100 µg/mL (≈ 558 µM)	–	–	–	–	–
CN(C)c1ccc(C(=C2C=CC(=[N+](C)C)C=C2)c2ccc(N(C)C)cc2)cc1.[Cl-] [GENTIAN VIOLET]	3.12 µg/mL	4	1	12.5 µg/mL	12.5 µg/mL	6.25 µg/mL	12.5 µg/mL	–	–	–	–	–
CC[n+]1c(-c2ccccc2)c2cc(N)ccc2c2ccc(N)cc21.[Br-] [HOMIDIUM BROMIDE]	5 µg/mL	4	2	10 µg/mL	20 µg/mL	10 µg/mL	10 µg/mL	–	–	–	–	–
CCC[C@@H]1C[C@@H](C(=O)N[C@@H]([C@H]2O[C@H](SC)[C@H](O)[C@@H](O)[C@H]2O)[C@@H](C)O)N(C)C1 [LINCOMYCIN]	25 µg/mL (≈ 61.5 µM)	4	1	100 µg/mL (≈ 246 µM)	100 µg/mL (≈ 246 µM)	25 µg/mL (≈ 61.5 µM)	50 µg/mL (≈ 123 µM)	–	–	–	–	–
CCn1cc(C(=O)O)c(=O)c2ccc(C)nc21 [NALIDIXIC ACID]	25 µg/mL (≈ 108 µM)	1	1	25 µg/mL (≈ 108 µM)	25 µg/mL (≈ 108 µM)	25 µg/mL (≈ 108 µM)	12.5 µg/mL (≈ 53.8 µM)	–	–	–	–	–
CO[C@@H]1[C@@H](OC(N)=O)[C@@H](O)[C@H](Oc2ccc3c(O)c(NC(=O)c4ccc(O)c(CC=C(C)C)c4)c(=O)oc3c2C)OC1(C)C [NOVOBIOCIN]	2.5 µg/mL (≈ 4.08 µM)	16	2	20 µg/mL (≈ 32.6 µM)	40 µg/mL (≈ 65.3 µM)	40 µg/mL (≈ 65.3 µM)	40 µg/mL (≈ 65.3 µM)	–	–	–	–	–
CO[C@H]1/C=C/O[C@@]2(C)Oc3c(C)c(O)c4c(O)c(c(/C=N/N5CCN(C)CC5)c(O)c4c3C2=O)NC(=O)/C(C)=C\C=C\[C@H](C)[C@H](O)[C@@H](C)[C@@H](O)[C@@H](C)[C@H](OC(C)=O)[C@@H]1C [RIFAMPIN]	0.1 µg/mL (≈ 0.122 µM)	512	64	0.78 µg/mL (≈ 0.948 µM)	50 µg/mL (≈ 60.8 µM)	0.2 µg/mL (≈ 0.243 µM)	0.78 µg/mL (≈ 0.948 µM)	–	–	–	–	–
Nc1ccc(S(=O)(=O)Nc2nccs2)cc1 [SULFATHIAZOLE]	625 µg/mL (≈ 2450 µM)	4	1	2500 µg/mL (≈ 9790 µM)	2500 µg/mL (≈ 9790 µM)	1250 µg/mL (≈ 4900 µM)	2500 µg/mL (≈ 9790 µM)	–	–	–	–	–
COc1cc(Cc2cnc(N)nc2N)cc(OC)c1OC [TRIMETHOPRIM]	0.25 µg/mL (≈ 0.861 µM)	32	4	2 µg/mL (≈ 6.89 µM)	8 µg/mL (≈ 27.6 µM)	0.5 µg/mL (≈ 1.72 µM)	1 µg/mL (≈ 3.44 µM)	–	–	–	–	–
CN[C@H](CC(C)C)C(=O)N[C@H]1C(=O)N[C@@H](CC(N)=O)C(=O)N[C@H]2C(=O)N[C@H]3C(=O)N[C@H](C(=O)N[C@H](C(=O)O)c4cc(O)cc(O)c4-c4cc3ccc4O)[C@H](O)c3ccc(c(Cl)c3)Oc3cc2cc(c3O[C@@H]2O[C@H](CO)[C@@H](O)[C@H](O)[C@H]2O[C@H]2C[C@](C)(N)[C@H](O)[C@H](C)O2)Oc2ccc(cc2Cl)[C@H]1O [VANCOMYCIN]	125 µg/mL (≈ 86.3 µM)	8	4	250 µg/mL (≈ 173 µM)	1000 µg/mL (≈ 690 µM)	250 µg/mL (≈ 173 µM)	250 µg/mL (≈ 173 µM)	–	–	–	–	–
GENTAMICIN	–	4	0.5	–	–	–	–	5 µg/mL	40 µg/mL	20 µg/mL	20 µg/mL	40 µg/mL
NEOMYCIN SULFATE	–	1	0.125	–	–	–	–	125 µg/mL	1000 µg/mL	125 µg/mL	125 µg/mL	500 µg/mL
POLYMYXIN B	–	4	1	–	–	–	–	3.12 µg/mL	12.5 µg/mL	12.5 µg/mL	6.25 µg/mL	6.25 µg/mL
SPIRAMYCIN	–	2	1	–	–	–	–	12.5 µg/mL	25 µg/mL	25 µg/mL	25 µg/mL	25 µg/mL
